Columns and labels:
[1] = test system: HDAC2; set-up: method as in PMID 35008795; conditions: cited from earlier work
[2] = test system: HDAC1; set-up: method as in PMID 35008795; conditions: cited from earlier work
[3] = test system: HDAC3; set-up: method as in PMID 35008795; conditions: cited from earlier work
[4] = test system: H3K56ac; test: Histone 3 Lysine 56 acetylation (H3K56ac) levels by quantitative western blotting in HCT116 cells; type: cell-based, human; conditions: for H3K56 acetylation levels: rescreen with methylated controls (Fig. 4C); for H3K56ac levels: initial screen, HCT116 cells, 24 hours, fold change compared at 10 μM
Experimental: (§1) We screened these compounds side-by side with JPS004 a VHL based HDAC1–3 targeting PROTAC and the HDAC1–3 inhibitor CI-994 as control compounds for degradation and inhibition, respectively. […] HCT116 cells were incubated for 24 hours with the compounds and HDAC1, HDAC2 and HDAC3 abundance was quantified by fluorescence western blotting. We also determined the effects on Histone 3 Lysine 56 acetylation (H3K56ac) levels as a secondary assay, for in-cell HDAC inhibition or degradation. […] Similar to our previous observations with VHL recruiting PROTACs, HDAC2 reduction was less affected. It was noteworthy that 7 also incorporated a 12 carbon alkyl linker, which has been an effective linker in our previous studies.[10],[11] Pleasingly, compounds 3–8 also had more modest effects on HDAC3 abundance compared to previously reported VHL recruiting PROTACs.[6]–[13] […] However, while surprising, it is not unprecedented as we and others have observed similar effects on histone acetylation markers with HDAC3 targeting PROTACs.[11],[13],[18]
(§2) Fig. 3 HDAC1, HDAC2, HDAC3 abundance were determined by quantitative western blotting with antibodies for HDAC1, HDAC2, HDAC3 in HCT116 cells after 24 hours. H3K56 acetylation levels were also determined by quantitative western blotting with an antibody for H3K56ac, and the fold change was compared between compounds at 10 μM, normalising treatment with inhibitor CI 994 = 1.0.
(§3) Supplementary Information: Biology
(§4) 1. Cell Culture, Compound Handling and Western Blotting Protocols
(§5) The HCT116 cell line used in this study was obtained from ATCC (CCL-247). HCT116 human colon carcinoma cells were grown in a Dulbecco’s modified Eagle medium (GIBCO, 41965-039) supplemented with 10% FBS (Sigma) and 1X glutamine/penicillin/streptomycin (GIBCO, 10378−016). Cells were incubated at 37 °C with 5% CO2. Cells were treated with compounds at indicated concentrations (0.01−10 μM). All compounds were made up to a standard solution of 10 mM in DMSO, serially diluted in DMSO, then added to fresh medium (5 mL total) to afford the concentrations stated (0.01−10 μM), with a final DMSO volume of […]
(§6) HCT116 cells were seeded into 6-well plates (4 × 10^5 cells/well) for 24 hours and then treated with DMSO or compounds at the indicated concentrations in fresh medium (5 mL total). After 24 hours treatment time, the cells were harvested and then lysed in lysis buffer (50 mM Tris-HCl, 150 mM NaCl, 0.5% NP-40, 0.5% Triton X-100) supplemented with a protease inhibitor (Sigma, P8340). The suspension was incubated on ice for 30 min, then centrifuged (18,000 rcf, 15 min, 4 °C) and the supernatant collected. Protein concentrations were quantified via Bradford Assay using Protein Assay Dye Reagent Concentrate (BIO-RAD). For histone extraction, an equal volume of 0.4 N H2SO4 was added to the pellets, and the extracts were placed at 4 °C overnight, centrifuged (18,000 rcf, 15 min, 4 °C), then the supernatant (histone extract) collected.
Western blots were run on NuPAGE 4−12% bis−Tris gels with 30 μg of protein or 10 μL of ac id-extracted histone loaded per lane, using NuPAGE LDS sample buffer (4X). PageRuler Plus Prestained Ladder was used for size standards. After gel electrophoresis at 140 V for 90 min, the separated proteins were transferred onto a nitrocellulose membrane at 30 V for 60 min. The membranes were probed with primary antibodies (as indicated below) for 60−90 min. […] Image processing and band intensity quantification were performed using Image Studio Lite. […]

[5] = target: T1, HDAC1 (Homo sapiens, UniProt Q13547); test: HDAC1 abundance by quantitative fluorescence western blotting in HCT116 cells; type: cell-based; conditions: for Dose response degradation of HDAC1: 24 h, 0.01-10 μM, two independent biological replicates; for HDAC1 abundance: at 0.1 μM and 1 μM
T1 construct: endogenous in cells; host or cells: HCT116 (ATCC CCL-247)
Experimental: as §1, §2, §3, §4, §5
HCT116 cells were seeded into 6-well plates (4 × 10^5 cells/well) for 24 hours and then treated with DMSO or compounds at the indicated concentrations in fresh medium (5 mL total). After 24 hours treatment time, the cells were harvested and then lysed in lysis buffer (50 mM Tris-HCl, 150 mM NaCl, 0.5% NP-40, 0.5% Triton X-100) supplemented with a protease inhibitor (Sigma, P8340). The suspension was incubated on ice for 30 min, then centrifuged (18,000 rcf, 15 min, 4 °C) and the supernatant collected. Protein concentrations were quantified via Bradford Assay using Protein Assay Dye Reagent Concentrate (BIO-RAD). […] Western blots were run on NuPAGE 4−12% bis−Tris gels with 30 μg of protein or 10 μL of ac id-extracted histone loaded per lane, using NuPAGE LDS sample buffer (4X). PageRuler Plus Prestained Ladder was used for size standards. After gel electrophoresis at 140 V for 90 min, the separated proteins were transferred onto a nitrocellulose membrane at 30 V for 60 min. The membranes were probed with primary antibodies (as indicated below) for 60−90 min. Blots were developed with complimentary IRDye®-conjugated secondary antibodies, and the bands were visualized using an Odyssey infrared imaging system. Image processing and band intensity quantification were performed using Image Studio Lite.
(§7) 2. Western Blotting Results
(§8) 2.1. Western Blotting Analysis of Compounds 3-15 from Initial Screen
(§9) Figure S1. Western blotting of HDAC1/2/3 proteins in HCT116 cells treated with compounds 3-15.
(§10) (1 picture or pasted object on this page, not shown here)

[6] = target: T2, HDAC2 (Homo sapiens, UniProt Q92769); test: HDAC2 abundance by quantitative fluorescence western blotting in HCT116 cells; type: cell-based; conditions: for Dose response degradation of HDAC2: 24 h, 0.01-10 μM, two independent biological replicates; for HDAC2 abundance / degradation / HDAC2 abundance: initial screen, 24 hours; for HDAC2 abundance: at 0.1 μM and 1 μM
T2 construct: endogenous in cells; host or cells: HCT116 (ATCC CCL-247)
Experimental: as §1, §2, §3, §4, §5, §6
(§11) Western blots were run on NuPAGE 4−12% bis−Tris gels with 30 μg of protein or 10 μL of ac id-extracted histone loaded per lane, using NuPAGE LDS sample buffer (4X). PageRuler Plus Prestained Ladder was used for size standards. After gel electrophoresis at 140 V for 90 min, the separated proteins were transferred onto a nitrocellulose membrane at 30 V for 60 min. The membranes were probed with primary antibodies (as indicated below) for 60−90 min. Blots were developed with complimentary IRDye®-conjugated secondary antibodies, and the bands were visualized using an Odyssey infrared imaging system. Image processing and band intensity quantification were performed using Image Studio Lite.
as §7, §8, §9, §10

[7] = target: T3, HDAC3 (Homo sapiens, UniProt O15379); test: HDAC3 abundance by quantitative fluorescence western blotting in HCT116 cells; type: cell-based; conditions: for Dose response degradation of HDAC3: 24 h, 0.01-10 μM, two independent biological replicates; for HDAC3 abundance / degradation: initial screen, 24 hours
T3 construct: endogenous in cells; host or cells: HCT116 (ATCC CCL-247)
Experimental: as §1, §2, §3, §4, §5, §6, §11, §7, §8, §9, §10

[8] = test system: HDAC3; set-up: method as in PMID 35293758; conditions: previous findings; cited from earlier work
[9] = test system: HDAC1; set-up: method as in PMID 35293758; conditions: previous findings; cited from earlier work
[10] = test system: HDAC2; set-up: method as in PMID 35293758; conditions: previous findings; cited from earlier work

T1 sequence (Q13547 whole entry): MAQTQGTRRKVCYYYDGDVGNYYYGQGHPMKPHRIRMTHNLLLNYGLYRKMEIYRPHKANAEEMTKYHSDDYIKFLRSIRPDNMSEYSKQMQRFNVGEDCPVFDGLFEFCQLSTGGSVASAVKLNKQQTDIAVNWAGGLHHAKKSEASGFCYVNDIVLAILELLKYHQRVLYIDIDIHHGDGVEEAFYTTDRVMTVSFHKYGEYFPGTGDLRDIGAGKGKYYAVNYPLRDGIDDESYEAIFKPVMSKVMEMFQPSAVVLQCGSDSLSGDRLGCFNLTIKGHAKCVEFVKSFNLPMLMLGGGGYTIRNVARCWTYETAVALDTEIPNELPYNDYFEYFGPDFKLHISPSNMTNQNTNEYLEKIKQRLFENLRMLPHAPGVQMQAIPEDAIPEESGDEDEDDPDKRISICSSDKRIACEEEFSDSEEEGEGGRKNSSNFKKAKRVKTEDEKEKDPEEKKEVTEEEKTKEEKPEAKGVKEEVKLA
T2 sequence (Q92769 whole entry): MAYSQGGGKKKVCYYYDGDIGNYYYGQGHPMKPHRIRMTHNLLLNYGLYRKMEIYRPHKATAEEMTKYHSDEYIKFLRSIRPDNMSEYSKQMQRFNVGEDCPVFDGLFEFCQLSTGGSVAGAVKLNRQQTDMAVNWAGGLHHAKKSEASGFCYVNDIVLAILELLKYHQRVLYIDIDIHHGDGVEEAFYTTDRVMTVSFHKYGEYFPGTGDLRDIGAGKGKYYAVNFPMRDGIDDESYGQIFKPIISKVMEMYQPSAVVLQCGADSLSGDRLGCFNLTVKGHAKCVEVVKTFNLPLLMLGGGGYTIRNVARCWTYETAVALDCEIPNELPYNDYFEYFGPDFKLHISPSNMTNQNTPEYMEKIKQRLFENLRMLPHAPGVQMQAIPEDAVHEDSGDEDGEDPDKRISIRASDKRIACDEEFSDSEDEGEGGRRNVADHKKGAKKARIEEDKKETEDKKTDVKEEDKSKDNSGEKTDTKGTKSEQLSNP
T3 sequence (O15379 whole entry): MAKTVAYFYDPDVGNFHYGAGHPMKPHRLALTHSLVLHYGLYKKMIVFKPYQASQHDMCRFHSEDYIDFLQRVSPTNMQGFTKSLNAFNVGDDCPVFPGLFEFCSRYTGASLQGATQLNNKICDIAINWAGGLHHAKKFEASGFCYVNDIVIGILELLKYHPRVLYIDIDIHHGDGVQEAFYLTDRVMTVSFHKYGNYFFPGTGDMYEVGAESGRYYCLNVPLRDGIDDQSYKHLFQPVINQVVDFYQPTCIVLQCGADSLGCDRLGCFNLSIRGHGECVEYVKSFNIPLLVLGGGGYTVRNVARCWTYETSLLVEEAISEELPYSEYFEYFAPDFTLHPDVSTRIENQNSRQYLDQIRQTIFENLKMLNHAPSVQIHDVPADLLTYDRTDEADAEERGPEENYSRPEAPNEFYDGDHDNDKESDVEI
T3 sequence (Q9Y618 whole entry partner): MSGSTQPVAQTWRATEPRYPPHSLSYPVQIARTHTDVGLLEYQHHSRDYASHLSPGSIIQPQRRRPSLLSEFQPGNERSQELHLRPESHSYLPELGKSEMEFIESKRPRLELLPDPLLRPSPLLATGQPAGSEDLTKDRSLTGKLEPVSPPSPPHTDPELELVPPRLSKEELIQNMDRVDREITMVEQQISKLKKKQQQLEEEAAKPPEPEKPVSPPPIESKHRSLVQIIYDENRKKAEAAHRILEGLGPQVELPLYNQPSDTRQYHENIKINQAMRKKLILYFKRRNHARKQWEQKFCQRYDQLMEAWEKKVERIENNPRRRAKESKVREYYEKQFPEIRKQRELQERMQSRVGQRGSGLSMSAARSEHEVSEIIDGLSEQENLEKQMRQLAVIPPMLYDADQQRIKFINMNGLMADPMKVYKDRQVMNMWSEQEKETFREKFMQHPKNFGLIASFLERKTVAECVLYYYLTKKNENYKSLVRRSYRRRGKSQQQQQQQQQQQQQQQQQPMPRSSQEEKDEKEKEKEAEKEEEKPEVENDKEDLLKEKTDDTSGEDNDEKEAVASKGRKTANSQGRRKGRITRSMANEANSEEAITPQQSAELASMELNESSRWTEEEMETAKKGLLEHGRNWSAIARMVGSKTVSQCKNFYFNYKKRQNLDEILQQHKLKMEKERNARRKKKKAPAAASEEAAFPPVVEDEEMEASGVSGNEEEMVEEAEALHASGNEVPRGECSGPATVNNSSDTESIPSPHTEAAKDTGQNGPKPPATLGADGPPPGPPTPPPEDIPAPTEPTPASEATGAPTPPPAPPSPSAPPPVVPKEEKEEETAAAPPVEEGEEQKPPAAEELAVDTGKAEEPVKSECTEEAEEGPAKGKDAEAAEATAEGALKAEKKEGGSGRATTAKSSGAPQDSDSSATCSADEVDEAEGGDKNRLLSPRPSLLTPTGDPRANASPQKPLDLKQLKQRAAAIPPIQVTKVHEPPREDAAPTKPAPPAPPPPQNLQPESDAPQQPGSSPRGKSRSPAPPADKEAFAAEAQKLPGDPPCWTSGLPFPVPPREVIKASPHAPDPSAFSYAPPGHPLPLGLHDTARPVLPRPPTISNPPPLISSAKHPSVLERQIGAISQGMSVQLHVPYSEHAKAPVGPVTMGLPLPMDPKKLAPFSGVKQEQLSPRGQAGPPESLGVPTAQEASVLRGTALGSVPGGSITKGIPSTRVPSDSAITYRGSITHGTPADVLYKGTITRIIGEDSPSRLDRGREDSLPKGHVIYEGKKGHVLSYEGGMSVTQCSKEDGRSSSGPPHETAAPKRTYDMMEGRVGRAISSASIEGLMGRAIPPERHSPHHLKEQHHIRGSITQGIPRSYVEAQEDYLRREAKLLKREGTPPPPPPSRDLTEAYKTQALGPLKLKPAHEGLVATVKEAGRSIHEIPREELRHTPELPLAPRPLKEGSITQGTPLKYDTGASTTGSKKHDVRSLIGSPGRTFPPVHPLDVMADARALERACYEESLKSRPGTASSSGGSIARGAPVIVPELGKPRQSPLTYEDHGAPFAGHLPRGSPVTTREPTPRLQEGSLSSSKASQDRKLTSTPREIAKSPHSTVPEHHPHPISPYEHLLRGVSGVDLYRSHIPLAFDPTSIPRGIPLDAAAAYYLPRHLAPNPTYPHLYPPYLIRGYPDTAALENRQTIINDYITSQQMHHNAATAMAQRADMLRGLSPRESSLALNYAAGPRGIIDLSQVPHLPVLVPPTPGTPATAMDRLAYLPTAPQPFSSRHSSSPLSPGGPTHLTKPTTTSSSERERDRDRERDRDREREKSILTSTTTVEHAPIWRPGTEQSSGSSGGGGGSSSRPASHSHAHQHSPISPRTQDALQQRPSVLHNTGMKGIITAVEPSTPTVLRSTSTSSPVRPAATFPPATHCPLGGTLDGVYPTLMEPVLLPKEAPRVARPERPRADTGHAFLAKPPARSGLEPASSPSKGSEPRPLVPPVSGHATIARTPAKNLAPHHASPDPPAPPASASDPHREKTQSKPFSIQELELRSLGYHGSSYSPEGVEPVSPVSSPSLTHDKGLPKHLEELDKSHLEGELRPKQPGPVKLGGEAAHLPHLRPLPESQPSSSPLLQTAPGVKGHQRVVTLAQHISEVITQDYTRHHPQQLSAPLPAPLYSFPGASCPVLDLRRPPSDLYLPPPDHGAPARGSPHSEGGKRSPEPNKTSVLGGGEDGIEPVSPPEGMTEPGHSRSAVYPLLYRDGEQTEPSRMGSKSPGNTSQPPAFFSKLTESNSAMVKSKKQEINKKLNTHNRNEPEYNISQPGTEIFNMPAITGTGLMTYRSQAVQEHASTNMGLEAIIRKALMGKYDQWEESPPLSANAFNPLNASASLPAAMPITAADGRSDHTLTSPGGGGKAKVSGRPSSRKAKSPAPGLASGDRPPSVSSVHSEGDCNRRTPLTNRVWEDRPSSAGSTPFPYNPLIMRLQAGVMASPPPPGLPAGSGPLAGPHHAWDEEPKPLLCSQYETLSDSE

Nc1ccc(-c2ccc(F)cc2)cc1NC(=O)c1cnc(N2CCNCC2)cn1 [Compound 1]
IC50 [1]: 340 nM
IC50 [2]: 160 nM
IC50 [3]: 6700 nM

Nc1ccccc1NC(=O)c1cnc(N2CCN(C(=O)CCC3CCN(c4cccc5c4C(=O)N(C4CCC(=O)NC4=O)C5=O)CC3)CC2)cn1 (stereo not shown) [Compound 5]
H3K56 acetylation levels [4]: increasing H3K56ac levels
Dose response degradation of HDAC1 [5]: dose dependent degradation
Dose response degradation of HDAC2 [6]: dose dependent degradation
Dose response degradation of HDAC3 [7]: a hook effect was observed

Nc1ccccc1NC(=O)c1cnc(N2CCN(C(=O)CCCCCCCCCCCNc3cccc4c3C(=O)N(C3CCC(=O)NC3=O)C4=O)CC2)cn1 (stereo not shown) [Compound 7]
H3K56ac levels [4]: did not increase H3K56ac levels
H3K56 acetylation levels [4]: did not increase H3K56 acetylation levels
Dose response degradation of HDAC1 [5]: clear dose dependent HDAC1 degradation
degradation selectivity (HDAC1 over HDAC3) ([5]; 24 hours): selective degradation of HDAC1 over HDAC3
HDAC1 degradation ([5]; initial screen, 24 hours, at 1 μM): greatest HDAC1 degradation
Dose response degradation of HDAC3 [7]: minimal HDAC3 degradation

Nc1ccccc1NC(=O)c1cnc(N2CCN(C(=O)CCCCCCCC(=O)NCCNc3cccc4c3C(=O)N(C3CCC(=O)NC3=O)C4=O)CC2)cn1 (stereo not shown) [Compound 9]
H3K56ac levels [4]: increase H3K56ac levels to greater levels than DMSO controls
HDAC1 abundance / degradation ([5]; initial screen, 24 hours): no effects
HDAC2 abundance / degradation [6]: no effects
HDAC3 abundance / degradation [7]: no effects

Nc1ccc(-c2ccc(F)cc2)cc1NC(=O)c1cnc(N2CCN(CCCCCCNc3cccc4c3C(=O)N(C3CCC(=O)NC3=O)C4=O)CC2)cn1 (stereo not shown) [Compound 10]
H3K56ac levels [4]: increase H3K56ac levels to greater levels than DMSO controls
HDAC1 abundance / degradation ([5]; initial screen, 24 hours): no effects
HDAC2 abundance / degradation [6]: no effects
HDAC3 abundance / degradation [7]: no effects

Nc1ccc(-c2ccc(F)cc2)cc1NC(=O)c1cnc(N2CCN(C(=O)CCCCCNc3cccc4c3C(=O)N(C3CCC(=O)NC3=O)C4=O)CC2)cn1 (stereo not shown) [Compound 11]
HDAC1 abundance ([5]; initial screen, 24 hours): reduced
HDAC2 abundance [6]: reduced
HDAC3 abundance / degradation [7]: no HDAC3 degradation

Nc1ccc(-c2ccc(F)cc2)cc1NC(=O)c1cnc(N2CCN(C(=O)CCC3CCN(c4cccc5c4C(=O)N(C4CCC(=O)NC4=O)C5=O)CC3)CC2)cn1 (stereo not shown) [Compound 12]
Dose response degradation of HDAC1 [5]: very similar dose dependent degradation of HDAC1 and HDAC2 to 5
degradation selectivity (HDAC1 over HDAC3) ([5]; 24 hours): selective degradation of HDAC1 over HDAC3
HDAC1 abundance ([5]; initial screen, 24 hours): reduced
Dose response degradation of HDAC2 [6]: very similar dose dependent degradation of HDAC1 and HDAC2 to 5
HDAC2 abundance [6]: reduced
Dose response degradation of HDAC3 [7]: HDAC3 degradation was abolished
HDAC3 abundance / degradation [7]: no HDAC3 degradation

Nc1ccc(-c2ccc(F)cc2)cc1NC(=O)c1cnc(N2CCN(C(=O)CCCCCCCCCCCNc3cccc4c3C(=O)N(C3CCC(=O)NC3=O)C4=O)CC2)cn1 (stereo not shown) [Compound 14]
HDAC1 abundance / degradation ([5]; initial screen, 24 hours): less effective at HDAC1 degradation compared to 11 and 12

Nc1ccc(-c2ccc(F)cc2)cc1NC(=O)c1cnc(N2CCN(C(=O)CCCCCCCC(=O)N3CCN(c4cccc5c4C(=O)N(C4CCC(=O)NC4=O)C5=O)CC3)CC2)cn1 (stereo not shown) [Compound 15]
HDAC1 abundance / degradation ([5]; initial screen, 24 hours): less effective at HDAC1 degradation compared to 11 and 12

Cc1ncsc1-c1ccc(CNC(=O)[C@@H]2C[C@@H](O)CN2C(=O)[C@@H](NC(=O)CCCCCCCCCCC(=O)Nc2ccc(C(=O)Nc3ccccc3N)cc2)C(C)(C)C)cc1 [JPS004]
HDAC3 degradation [8]: HDAC3 degradation is compromised at concentrations >1 μM due to the hook effect
HDAC1 degradation [9]: degrade
HDAC2 degradation [10]: degrade

Cc1ncsc1-c1ccc(CNC(=O)[C@@H]2C[C@@H](O)CN2C(=O)[C@@H](NC(=O)COCCCCCCCCCOCC(=O)Nc2ccc(C(=O)Nc3ccccc3N)cc2)C(C)(C)C)cc1 [JPS016]
HDAC3 degradation [8]: hook effect for HDAC3
HDAC1 degradation [9]: degrade
HDAC2 degradation [10]: degrade

Cc1ncsc1-c1ccc(CNC(=O)[C@@H]2C[C@@H](O)CN2C(=O)[C@@H](NC(=O)C2(F)CC2)C(C)(C)C)c(OCCCCCCCCCCCC(=O)Nc2ccc(C(=O)Nc3ccccc3N)cc2)c1 [JPS036]
HDAC3 degradation selectivity over HDAC1/2 [8]: can enhance HDAC3 degradation selectivity over HDAC1/2
